# Tested on: arachidonic acid-induced pulmonary embolism
# Experiment: Inhibiting effect on arachidonic acid-induced pulmonary embolism (in vivo)
# Details: Mus musculus, 3 h; oral administration in aqueous CMC to fasted ddY-male mice; arachidonic acid (125 mg/10ml/kg) into tail vein three hours later; dose required to induce at least 15 % decrease in recovery time of locomotive activity vs control; read-out: Minimum effective dose
# Description: [Inhibiting effect on arachidonic acid-induced pulmonary embolism (in vivo)]
# An aqueous carboxymethylcellulose (hereinafter referred to as "CMC") solution containing a test compound (20 ml/kg) was orally administered to ddY-male mice (8 mice per group) fasted overnight.
row,SMILES,minimal effective dose [mg/kg]
1,CC(Cc1ccc(NCC(=O)O)cc1)NS(=O)(=O)c1ccc(Cl)cc1 (stereo not shown) [Example 2],1
2,CC(CNS(=O)(=O)c1ccc(Cl)cc1)c1ccc(NCC(=O)NCCC(=O)O)cc1 (stereo not shown) [Example 3],1
3,CC(CNS(=O)(=O)c1ccc(Cl)cc1)c1ccc(NCC(=O)NCCCC(=O)O)cc1 (stereo not shown) [Example 4],3
4,"O=C([O-])CNc1ccc(CCNS(=O)(=O)c2ccccc2)cc1.[Na+] [Known compound, Sodium N-[4-(2-benzenesulfonylaminoethyl)phenyl]glycinate, reference compound]",10

# — patent publication EP0375557A1, “Glycine derivative process for preparation thereof, and pharmaceutical composition containing it” (TANABE SEIYAKU CO., LTD., priority 1988, dated 1990)
